Tested on: potato 5-Lipoxygenase enzyme
Assay: Lipoxygenase Inhibitor Screening Assay Kit (Cayman) with potato 5-Lipoxygenase
Format: biochemical
Details: positive control at 100 μM
Method: Research grade reagents were used for the rest of the assay preparations. Extracts were dissolved in dimethyl sulfoxide (‘DMSO’) to a final concentration of 50 mg/mL, and then diluted in appropriate buffer for each bioassay to working concentrations.
This kit measures hydroperoxides produced in the lipoxygenation reaction.
The extracts were dissolved in methanol to final working concentrations. 5-LOX enzyme, Chromagen, and Linoleic Acid solutions were prepared immediately before use. Nordihydroguaiaretic acid (‘NDGA’) was used as a positive control. 5-LOX enzyme was added to the test samples and controls and incubated for five minutes at room temperature to allow for enzyme/inhibitor interaction. Linoleic acid substrate was added to the plate to initiate the reaction, and the plate was then shaken at room temperature for 10 minutes. Chromagen was added to visualize the hydroperoxides formed during the reaction and the plate was shaken at room temperature for another five minutes. The absorbance was then read at 492 nm. Percent inhibition of the extract concentration was calculated in comparison to the uninhibited control wells.

In the case of CC(Cc1ccc(O)c(O)c1)C(C)Cc1ccc(O)c(O)c1 (stereo not shown) [NDGA, Nordihydroguaiaretic acid], the 5-LOX enzyme inhibition is reported as 100%.

Reference: US11311590B2, “Anti-inflammatory botanical extract” (Innophos, Inc., priority 2018, dated 2022)
